Structures are written as SMILES.

From publication PMC10927987, “Biochemical characterization, structure-guided mutagenesis, and application of a recombinant D-allulose 3-epimerase from Christensenellaceae bacterium for the biocatalytic production of D-allulose” (Frontiers in Bioengineering and Biotechnology, 2024) come the findings set out here.

This experiment relates to T1, CbDAE.
T1 construct: codon-optimized gene in pET-28a(+) (NdeI/EcoRI), E. coli BL21(DE3), Ni-NTA purified, His tag; mutagenesis template given as pET22b-CbDAE
As to the kind of experiment: epimerization, HPLC-RI, Michaelis-Menten fit. Particulars: standard reaction conditions: 1 mM Co2+, 60 °C, 10 min; 5-300 mM substrate. It counts as biochemical, Christensenellaceae bacterium. The text has this:
epimerization, HPLC-RI, Michaelis-Menten fit on CbDAE

Regarding `OCC1(O)OC[C@@H](O)[C@H](O)[C@@H]1O` (stereo partly drawn) [D-tagatose], the Km (usually the concentration of substrate that gives half-maximal velocity) was found to be 52.7 ± 6.2 mM.
With `OCC1(O)OC[C@@H](O)[C@H](O)[C@H]1O` (stereo partly drawn) [D-sorbose], the Km is 61.6 ± 4.8 mM.
For the compound `OCC1(O)OC[C@@H](O)[C@@H](O)[C@H]1O` (stereo partly drawn) [D-allulose], the Km is 44.9 ± 5.1 mM.
